Results published in patent US20250019385A1, “SPIROCYCLIC ANNULATED 2-AMINO-3-CYANO THIOPHENES AND DERIVATIVES FOR THE TREATMENT OF CANCER” (Boehringer Ingelheim International GmbH, priority 2023, published 2025).

System: Ba/F3 cells KRAS G12D
Test: Ba/F3 proliferation assay (KRAS G12D)
Type: cell-based
Conditions: Mus musculus, BaF3, 72 h, AlamarBlue viability
Procedure: Ba/F3 cells are ordered from DSMZ (ACC300, Lot17) and grown in RPMI-1640 (ATCC 30-2001)+10% FCS+10 ng/mL IL-3 at 37° C. in 5% […] atmosphere. Plasmids containing KRASG12 mutants (i.e. […], G12C, G12V) are obtained from GeneScript. To generate KRASG12-dependent Ba/F3 models, Ba/F3 cells are transduced with retroviruses containing vectors that harbor KRASG12 isoforms. Platinum-E cells (Cell Biolabs) are used for retrovirus packaging. Retrovirus is added to Ba/F3 cells. To ensure infection, 4 μg/mL polybrene is added and cells are spinfected. Infection efficiency is confirmed by measuring GFP-positive cells using a cell analyzer. Cells with an infection efficiency of 10% to 20% are further cultivated and puromycin selection with 1 μg/mL is initiated. As a control, parental Ba/F3 cells are used to show selection status. Selection is considered successful when parental Ba/F3 cells cultures died. To evaluate the transforming potential of KRASG12 mutations, the growth medium is no longer supplemented with IL-3. Ba/F3 cells harboring the empty vector are used as a control. Approximately ten days before conducting the experiments, puromycin is left out.
For proliferation assays, Ba/F3 cells are seeded into 384-well plates at 1.5×1 (M cells/60 μL in growth media (RPMI-1640+10% FCS). Compounds (10 mM stock in DMSO) are added at logarithmic dose series using the ECHO acoustic liquid handler system (Beckman Coulter), normalizing for added DMSO and including DMSO controls. All compound treatments are performed in technical duplicates. For the TO time point measurement, untreated cells are analyzed at the time of compound addition. Treated cells are incubated for 72 h at 37° C. with 5% CO2 and cell viability is measured in the PerkinElmer Envision Multimode Reader using AlamarBlue™ (ThermoFisher) viability stain. Viability (stated as percent of control) is defined as relative fluorescence units RFU of each well divided by the RFU of cells in DMSO controls. IC50 values are determined from viability measurements by non-linear regression using a four-parameter model.

| Structure (SMILES) | IC50 |
| --- | --- |
| CO[C@H]1CCN(C)[C@@H]1[C@H](C)Oc1nc(-c2onc3c2CCC[C@@]32CCCc3sc(N)c(C#N)c32)nc2c1CN(C1COC1)C[C@]21CCOC1 [I-57] | 11 nM |
| CCn1c(=O)n([C@@H]2CCCOC2)c2nc(-c3onc4c3CCC[C@@]43CCCc4sc(N)c(C#N)c43)nc(O[C@@H](C)C34CCCN3CCC4)c21 [I-36] | 95 nM |
| C[C@H](Oc1nc(-c2onc3c2CCC[C@@]32CCCc3sc(N)c(C#N)c32)nc2c1n(C)c(=O)n2[C@H]1CCC[C@@H]1O)[C@@H]1CCCN1C [I-19] | 470 nM |
| CO[C@@H]1C[C@@H]([C@H](C)Oc2nc(-c3onc4c3CCC[C@@]43CCCc4sc(N)c(C#N)c43)nc3c2CN(C2COC2)C[C@]32CCOC2)N(C)C1 [I-58] | 22 nM |
| C[C@H](Oc1nc(-c2onc3c2CCC[C@@]32CCCc3sc(N)c(C#N)c32)nc2c1CN(C1COC1)C[C@]21CCOC1)[C@@H]1CC[C@H](C)N1C [I-55] | 10 nM |
| C[C@H](Oc1nc(-c2onc3c2CCC[C@@]32CCCc3sc(N)c(C#N)c32)nc2c1n(C)c(=O)n2[C@H]1CO[C@@H](C)C1)[C@@H]1CC[C@H](C)N1C [I-50] | 4 nM |
| C[C@H](Oc1nc(-c2onc3c2CCC[C@@]32CCCc3sc(N)c(C#N)c32)nc2c1N(C)C(=O)CN2[C@@H]1CCOC1)[C@@H]1CCCN1C [I-37] | 305 nM |
| CO[C@H]1CCN(C)[C@@H]1[C@H](C)Oc1nc(-c2onc3c2CCC[C@@]32CCCc3sc(N)c(C#N)c32)nc2c1n(C)c(=O)n2[C@@H]1CCCOC1 [I-6] | 9 nM |
| CO[C@H]1CCN(C)[C@@H]1[C@H](C)Oc1nc(-c2noc3c2CCC[C@@]32CCCc3sc(N)c(C#N)c32)nc2c1n(C)c(=O)n2[C@@H]1CCCOC1 [II-3] | 9 nM |
| C[C@H](Oc1nc(-c2onc3c2CCC[C@@]32CCCc3sc(N)c(C#N)c32)nc2c1n(C)c(=O)n2[C@@H]1CC2CCC1O2)[C@@H]1CCCN1C (stereo partly shown) [I-18] | 182 nM |
| C[C@H](Oc1nc(-c2noc3c2CCC[C@@]32CCCc3sc(N)c(C#N)c32)nc2c1CN(c1ncccn1)[C@@]21CCOC1)[C@@H]1CCCN1C [II-7b] | 127 nM |
| C[C@@H]1COC[C@H](n2c(=O)n(C)c3c(O[C@@H](C)[C@@H]4CCCN4C)nc(-c4onc5c4CCC[C@@]54CCCc5sc(N)c(C#N)c54)nc32)C1 [I-44] | 17 nM |
| C[C@H](Oc1nc(-c2onc3c2CCC[C@@]32CCCc3sc(N)c(C#N)c32)nc2c1n(C)c(=O)n2[C@@]12COC[C@@H]1C2)[C@@H]1CC[C@H](C)N1C [I-45] | 6 nM |
| CO[C@H]1C[C@H](n2c(=O)n(C)c3c(O[C@@H](C)[C@@H]4CCCN4C)nc(-c4onc5c4CCC[C@@]54CCCc5sc(N)c(C#N)c54)nc32)C1 [I-16] | 488 nM |
| C[C@H](Oc1nc(-c2noc3c2CCC[C@@]32CCCc3sc(N)c(C#N)c32)nc2c1CN(C1COC1)C[C@]21CCOC1)[C@@H]1CC[C@H](C)N1C [II-17] | 6 nM |
| C[C@H](Oc1nc(-c2onc3c2CCC[C@@]32CCCc3sc(N)c(C#N)c32)nc2c1n(C)c(=O)n2[C@H]1CC2CCC1O2)[C@@H]1CCCN1C (stereo partly shown) [I-17] | 47 nM |
| CCn1c(=O)n([C@@H]2CCCOC2)c2nc(-c3onc4c3CCC[C@@]43CCCc4sc(N)c(C#N)c43)nc(OCC34CCCN3CCC4)c21 [I-34] | 3020 nM |
| C[C@H](Oc1nc(-c2noc3c2CCC[C@@]32CCCc3sc(N)c(C#N)c32)nc2c1CN(c1ncccn1)[C@]21CCOC1)[C@@H]1CCCN1C [II-7a] | 28 nM |
| CCn1c(=O)n([C@@H]2CCCOC2)c2nc(-c3onc4c3CCC[C@@]43CCCc4sc(N)c(C#N)c43)nc(OC[C@@]34CCCN3C[C@H](F)C4)c21 [I-33] | 3550 nM |

| Structure (SMILES) | IC50 |
| --- | --- |
| CO[C@@H]1C[C@@H]([C@H](C)Oc2nc(-c3noc4c3CCC[C@@]43CCCc4sc(N)c(C#N)c43)nc3c2CN(C2COC2)C[C@]32CCOC2)N(C)C1 [II-14] | 11 nM |
| CO[C@H]1CCN(C)[C@@H]1[C@H](C)Oc1nc(-c2noc3c2CCC[C@@]32CCCc3sc(N)c(C#N)c32)nc2c1CN(C1COC1)C[C@]21CCOC1 [II-13] | 7 nM |
| C[C@H](Oc1nc(-c2noc3c2CCC[C@@]32SCCc3sc(N)c(C#N)c32)nc2c1COC[C@]21CCOC1)[C@@H]1CCCN1C [II-16] | 3 nM |
| C[C@H](Oc1nc(-c2onc3c2CCC[C@@]32CCCc3sc(N)c(C#N)c32)nc2c1[nH]c(=O)n2[C@@H]1CCCOC1)[C@@H]1CCCN1C [I-13] | 141 nM |
| C[C@H](Oc1nc(-c2noc3c2CCC[C@@]32CCCc3sc(N)c(C#N)c32)nc2c1CN(C1COC1)C[C@]21CCOC1)[C@@H]1CCCN1C [II-12] | 8 nM |
| C[C@H](Oc1nc(-c2onc3c2CCC[C@@]32CCCc3sc(N)c(C#N)c32)nc2c1CN(C1COC1)C[C@]21CCOC1)[C@@H]1CCCN1C [I-56] | 13 nM |
| CO[C@H]1C[C@@H](n2c(=O)n(C)c3c(O[C@@H](C)[C@@H]4CCCN4C)nc(-c4onc5c4CCC[C@@]54CCCc5sc(N)c(C#N)c54)nc32)C1 [I-31] | 37 nM |
| CO[C@H]1CCN(C)[C@@H]1[C@H](C)Oc1nc(-c2onc3c2CCC[C@@]32CCCc3sc(N)c(C#N)c32)nc2c1n(C)c(=O)n2[C@H]1COC[C@@H](C)C1 [I-51] | 26 nM |
| CCn1c(=O)n([C@@H]2CCCOC2)c2nc(-c3onc4c3CCC[C@@]43CCCc4sc(N)c(C#N)c43)nc(OCC3(CN4CCCC4)CC3)c21 [I-35] | 411 nM |
| CO[C@@H]1C[C@@H]([C@H](C)Oc2nc(-c3onc4c3CCC[C@@]43CCCc4sc(N)c(C#N)c43)nc3c2n(C)c(=O)n3[C@H]2COC[C@@H](C)C2)N(C)C1 [I-52] | 28 nM |
| C[C@H](Oc1nc(-c2noc3c2CCC[C@@]32CCCc3sc(N)c(C#N)c32)nc2c1CCC21CCOC1)[C@@H]1CCCN1C (stereo partly shown) [II-18] | 20 nM |
| CO[C@@H]1C[C@@H]([C@H](C)Oc2nc(-c3noc4c3CCC[C@@]43CCCc4sc(N)c(C#N)c43)nc3c2n(C)c(=O)n3[C@@]23COC[C@@H]2C3)N(C)C1 [II-6] | 11 nM |
| CO[C@@H]1C[C@@H]([C@H](C)Oc2nc(-c3onc4c3CCC[C@@]43CCCc4sc(N)c(C#N)c43)nc3c2n(C)c(=O)n3[C@@]23COC[C@@H]2C3)N(C)C1 [I-46] | 15 nM |
| CO[C@@H]1C[C@@H]([C@H](C)Oc2nc(-c3onc4c3CCC[C@@]43CCCc4sc(N)c(C#N)c43)nc3c2n(C)c(=O)n3[C@@H]2CCCOC2)N(C)C1 [I-14] | 10 nM |
| C[C@H](Oc1nc(-c2onc3c2CCC[C@@]32CCCc3sc(N)c(C#N)c32)nc2c1n(C)c(=O)n2[C@H]1CO[C@@H](C)C1)[C@@H]1CCCN1C [I-47] | 1 nM |
| C[C@H](Oc1nc(-c2onc3c2CCC[C@@]32CCCc3sc(N)c(C#N)c32)nc2c1n(C)c(=O)n2[C@@H]1CCOC1)[C@@H]1[C@H](F)CCN1C [I-4] | 145 nM |
| C[C@H](Oc1nc(-c2noc3c2CCC[C@@]32CCCc3sc(N)c(C#N)c32)nc2c1n(C)c(=O)n2[C@H]1CO[C@@H](C)C1)[C@@H]1CCCN1C [II-5] | 2 nM |
| CO[C@@H]1C[C@@H]([C@H](C)Oc2nc(-c3noc4c3CCC[C@@]43CCCc4sc(N)c(C#N)c43)nc3c2COC[C@]32CCOC2)N(C)C1 [II-11] | 4 nM |
